Source: PMC2908543, “Uropathogenic Escherichia coli Modulates Immune Responses and Its Curli Fimbriae Interact with the Antimicrobial Peptide LL-37” (PLoS Pathogens, 2010)
Residues, ends and D or L forms follow the SMILES beside them.

Assays:
[1] = test system: E. coli strain No. 12 and isogenic mutants; type: cell-based, Escherichia coli; details: bacteria pre-grown planktonically, curli expression suppressed (data not shown)
Experimental: For further investigation, E. coli isolate No. 12 from a child with pyelonephritis was chosen. This was a typical isolate expressing both curli and cellulose as well as type 1 fimbriae and yielding an approximately median level of biofilm as measured on microtiter plates. One-step knockout of bcsA and csgBA was carried out according to the protocol of Datsenko and Wanner with modifications, [50]. The following mutants were constructed using oligos listed in Table 1; WE1 bcsA::Cm, deficient in cellulose production; WE11 csgBA::Cm, deficient in curli production; and WE16 csgBA bscA::Cm, deficient in both cellulose and curli production. Expression of curli and cellulose in strain No. 12 was confirmed by these knockouts. Production of type 1 fimbriae under the culture conditions used for experiments was confirmed by yeast agglutination (see below).
The susceptibility of wild-type and mutant E. coli strains to synthetic LL-37 and mCRAMP (Innovagen AB, Lund, Sweden) was determined using a broth microdilution method. Briefly, bacteria were grown overnight at 37°C on LB plates with or without salt, inhibiting or promoting the formation of biofilm, respectively. Then, bacteria were suspended in PBS and diluted in LB broth without salt in a concentration of 10^5 CFU/ml. The bacterial concentration was verified by viable count after serial dilutions in PBS. Bacteria (90 µl suspension) were grown in 96-well plates in the presence of 10 µl aqueous solution of synthetic LL-37 or mCRAMP in final concentrations ranging from 0.6 µM to 20 µM in 2-fold dilutions. After 20 h, bacterial viability was measured colorimetrically by reduction of Alamar blue (BioSource International, Camarillo, CA, USA) for 1 h at 37°C [57]. The IC50 was determined as the peptide concentration that gave 50% reduction of the absorbance at 570 nm relative to bacteria grown without peptide.

[2] = test system: curli-mediated biofilm formation by E. coli; test: Effect on formation of biofilm, crystal violet microtiter plate; type: cell-based, Escherichia coli
Experimental: To measure the ability of the bacteria to adhere and to form biofilm a crystal violet assay in polystyrene microtiter plates (Costar, Corning, NY, USA) was performed. Bacteria were grown in Luria-Bertani (LB) broth without salt for 24 h at 37°C without shaking. Biofilm was then stained with crystal violet (3%). The dye was solubilized with ethanol (95%) and the optical density was measured at 570 nm.
Plates were filled with 90 µL bacterial culture of planktonic cells and 10 µL of aqueous solution of LL-37 in the same concentrations as in the susceptibility assay. As control peptides, sLL-37 (Innovagen AB) and VIP [27] with similar structural properties as LL-37 were utilized. The plates were incubated without shaking at 37°C for 20 h. After incubation, the amount of biofilm formed was determined as described above.

polymeric CsgA = biological target: T1, polymeric CsgA (Escherichia coli, UniProt P28307); test: Surface plasmon resonance, polymeric CsgA; details: polymeric CsgA immobilized (7000 response units), 0.1 µM peptide, 20 µl/min for 3 min, HBS-EP, Biacore 3000; binding constants not determinable
T1 construct: made in house; host or cells: E. coli LSR12 (C600::csg), co-expressed with CsgG
T1 sequence (P28307 21-151): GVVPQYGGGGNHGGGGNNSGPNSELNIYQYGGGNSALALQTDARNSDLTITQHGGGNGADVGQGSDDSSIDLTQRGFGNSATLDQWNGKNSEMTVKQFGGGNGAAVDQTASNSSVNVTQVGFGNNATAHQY
Experimental: (§1) Binding analysis of LL-37 to both monomeric and polymeric CsgA was performed with surface plasmon resonance (Biacore 3000 instrument; Biacore AB, Uppsala, Sweden). Both monomeric and polymeric CsgA was immobilized on a CM5 sensor chip (Biacore AB) surface by amine coupling. The chip surface was normalized in 70% glycerol and lanes on the chip were activated with injection of 35 µL 0.05 M N-hydroxysuccinimide (NHS)/0.2 M N-ethyl-N′-[3-dimethylamino) propyl]carbodiimide (EDC). Polymeric or monomeric CsgA (1 µM in 10 mM sodium acetate, pH 4.5) was then immobilized on the chip to 7000 response units and 2000 response units, respectively. After immobilization, the lanes were subjected to 60 µL ethanolamine (1 M, pH 8.5) to deactivate remaining activated carboxylic groups. One lane, activated and deactivated, was used as negative control (without addition of CsgA). Standard Biacore HBS-EP (Biacore AB) was utilized as running buffer, and 0.1 µM LL-37, sLL-37 or VIP were injected at 20 µl/min for 3 min. The surface was regenerated after each cycle with 100 mM HCl.

monomeric CsgA = biological target: T2, monomeric CsgA (Escherichia coli, UniProt P28307); test: Surface plasmon resonance, monomeric CsgA; details: monomeric CsgA immobilized (2000 response units), 0.1 µM peptide, 20 µl/min for 3 min, HBS-EP, Biacore 3000; binding constants not determinable
T2 construct: made in house; host or cells: E. coli LSR12 (C600::csg), co-expressed with CsgG
T2 sequence (P28307 21-151): as above
Experimental: as §1

CsgA polymerization = biological target: T3, CsgA polymerization (Escherichia coli, UniProt P28307); test: CsgA polymerization, Thioflavin T assay, Tecan plate reader; type: biochemical; details: 20 µM ThT, 37°C
T3 construct: made in house; host or cells: E. coli LSR12 (C600::csg), co-expressed with CsgG
T3 sequence (P28307 21-151): as above
Experimental: (§2) CsgA-His6 and CsgG, a lipoprotein that is required for CsgA secretion, were overexpressed in LSR12 (C600::csg). The purification procedure of recombinant CsgA-His6 was performed as previously described with some modifications. The filtrate was incubated with nickel-nitrilotriacetic acid (Ni-NTA) agarose (Invitrogen) for 1 h at 4°C with shaking, centrifuged at 200×g for 5 min and transferred to a polyprep chromatography column (Bio-Rad, Hercules, CA, USA). To confirm protein identity of CsgA-His6, the isolated protein was prepared and subjected to SDS-PAGE as described below, and thereafter the protein was transferred from the gel to a polyvinylidene fluoride (PVDF) membrane (Invitrogen) at 160 mA for 60 min. The band of 15 kDa, corresponding to the molecular weight of CsgA-His6, was excised from the membrane stained with Coomassie Blue and analysed with N-terminal sequence analysis as has been described. Since it has previously been shown that CsgA-His6 has the same polymerizing properties as wild-type CsgA [59], we refer to CsgA-His6 as CsgA.
Purified recombinant monomeric CsgA (10 µM) with or without different concentrations of the peptides LL-37, sLL-37 or VIP was mixed with 20 µM of the fiber-specific fluorescent probe ThT (Sigma-Aldrich). Fluorescence was measured with a Tecan infinite M200 reader (Tecan Nordic AB, Täby, Sweden). The excitation and emission wavelength was 430 and 490 nm, respectively. Measurements were conducted at 37°C every 10 min after shaking the sample for five seconds. Background fluorescence of the peptides themselves was subtracted.

CsgA fiber formation = test: CsgA fiber formation, Thioflavin T, confocal microscopy; type: biochemical, Escherichia coli; details: CsgA with equimolar peptide (1∶1), 20 µM ThT, 20 h at 37°C; CsgA alone = 1 arbitrary unit; corrected for peptide fluorescence; two experiments
Experimental: as §2
Recombinant monomeric CsgA was mixed with equimolar LL-37, sLL-37 or VIP and 20 µM ThT, and incubated over night at 37°C, washed twice, and suspended in 10 mM Kpi, pH 7.2 before mounting in ProLong Gold antifade mounting medium (Invitrogen). Images were acquired on a Leica TCS SP5 confocal microscope using a 20× objective. Fluorescence intensity was quantified using ImageJ software. The difference in fluorescence intensity of CsgA with and without peptides was calculated and corrected for the contribution of fluorescence from the peptides themselves.

CsgA = test: CD spectroscopy of CsgA; parameters: species or system Escherichia coli; details: 40 µM CsgA alone, 50 mM KPi, 0.02% NaN3, pH 7.2, 60 h at 37°C
Experimental: Samples containing 40 µM CsgA in 50 mM potassium phosphate buffer (KPi) and 0.02% NaN3, pH 7.2, with and without 10 µM LL-37 were incubated for 60 h at 37°C. The samples were then assayed with a Jasco J-810 spectropolarimeter from 190 to 250 nm in a quartz cell with a 1-mm path length at 20°C. The spectrum of buffer alone and LL-37 in buffer was subtracted from the spectra for CsgA alone and for CsgA together with LL-37, respectively.

toll-like receptor 2 = details: cytokine induction by Salmonella; ref [31]; cited from earlier work
Text: In the pathogenesis of infection, curli fimbriae have previously been implicated in the attachment and invasion of host cells, interaction with host proteins and activation of the immune system, [29], [30].

CC[C@H](C)[C@H](NC(=O)[C@H](CCCCN)NC(=O)[C@H](CCC(=O)O)NC(=O)CNC(=O)CNC(=O)[C@H](CCCCN)NC(=O)[C@H](CCCNC(=N)N)NC(=O)[C@H](CC(C)C)NC(=O)[C@H](CC(C)C)NC(=O)CN)C(=O)NCC(=O)N[C@@H](CCC(=O)O)C(=O)N[C@@H](CCCCN)C(=O)N[C@@H](CC(C)C)C(=O)N[C@@H](CCCCN)C(=O)N[C@@H](CCCCN)C(=O)N[C@H](C(=O)NCC(=O)N[C@@H](CCC(N)=O)C(=O)N[C@@H](CCCCN)C(=O)N[C@H](C(=O)N[C@@H](CCCCN)C(=O)N[C@@H](CC(N)=O)C(=O)N[C@@H](Cc1ccccc1)C(=O)N[C@@H](Cc1ccccc1)C(=O)N[C@@H](CCC(N)=O)C(=O)N[C@@H](CCCCN)C(=O)N[C@@H](CC(C)C)C(=O)N[C@H](C(=O)N1CCC[C@H]1C(=O)N[C@@H](CCC(N)=O)C(=O)N1CCC[C@H]1C(=O)N[C@@H](CCC(=O)O)C(=O)N[C@@H](CCC(N)=O)C(=O)O)C(C)C)[C@@H](C)CC)[C@@H](C)CC [mCRAMP] (H-GLLRKGGEKIGEKLKKIGQKIKNFFQKLVPQPEQ-OH; N-terminus and C-terminus assumed)
difference in resistance between the strains [1]: no significant difference in the resistance

vasoactive intestinal peptide [VIP]
reduction of biofilm formation ([2]; 2.5 µM peptide, cellulose-negative, curli-expressing E. coli strain, 37°C, 20 h, two experiments in triplicates): 10% | biofilm reduction compared with the effect of LL-37 ([2]; 2.5 µM, P = 0.001, t-test): significantly lower reduction than the effect of LL-37 | binding / association and dissociation by SPR (polymeric CsgA): faster dissociation rates than LL-37, indicating a weaker binding to CsgA | binding / association and dissociation by SPR (monomeric CsgA): faster dissociation rates than LL-37, indicating a weaker binding to CsgA | inhibition of CsgA polymerization (ThT fluorescence) (CsgA polymerization; 10 µM CsgA with different concentrations of peptide): less pronounced effect on CsgA polymerization than LL-37 | fluorescence relative to CsgA alone (CsgA fiber formation): approximately 0.2 arbitrary units

CsgA: major curli subunit, recombinant CsgA-His6
time to stationary phase of CsgA polymerization (CsgA polymerization; 10 µM CsgA alone): approximately 300 min | solubility of polymeric CsgA (from CD signal amplitude) (CsgA): decreased solubility due to polymerization | binding to toll-like receptor 2 (toll-like receptor 2): binding of CsgA to toll-like receptor 2
